This note sets out measurements from patent publication EP0938471B1, “THE PREPARATION AND USE OF ORTHO-SULFONAMIDO ARYL HYDROXAMIC ACIDS AS MATRIX METALLOPROTEINASE AND TACE INHIBITORS” (priority 1996, dated 1998).

Like-named read-outs stand apart in the source and are kept apart here.

Assay [1] has as its target T1, MMP-9 (Homo sapiens, UniProt P14780). Put plainly: In vivo MMP inhibition (enzyme in implanted dialysis tubing). Further details: species or system rat (Sprague-Dawley) or mouse (CD-1). The method, then:
A 2 cm piece of dialysis tubing (molecular weight cut-off 12-14,000, 10 mm flat width) containing matrix metalloproteinase enzyme (stromelysin, collagenase or gelatinase in 0.5 mL of buffer) is implanted either ip or sc (in the back) of a rat (Sprague-Dawley, 150-200g) or mouse (CD-1,25-50g) under anesthesia. Drugs are administered PO, IP, SC or IV through a canula in the jugular vein. Drugs are administered in a dose volume of 0.1 to 0.25 mL/animal. Contents of the dialysis tubing is collected and enzyme activity assayed. Enzyme reaction rates for each dialysis tube are calculated. Tubes from at least 3 different animals are used to calculate the mean± sem. Statistical significance (p<0.05) of vehicle-treated animals versus drug-treated animals is determined by analysis of variance. (Agents and Actions 21: 331, 1987).

Assay [2] deals with TACE (Homo sapiens, UniProt P78536). Put plainly: TACE inhibition (fluorescent peptidyl substrate). It counts as biochemical. The settings on record: for inhibition at 1 µM: at 1µM concentration.
In assay [3] the target is T2, MMP-1 (Homo sapiens, UniProt P03956).
T2 sequence (P03956 100-469): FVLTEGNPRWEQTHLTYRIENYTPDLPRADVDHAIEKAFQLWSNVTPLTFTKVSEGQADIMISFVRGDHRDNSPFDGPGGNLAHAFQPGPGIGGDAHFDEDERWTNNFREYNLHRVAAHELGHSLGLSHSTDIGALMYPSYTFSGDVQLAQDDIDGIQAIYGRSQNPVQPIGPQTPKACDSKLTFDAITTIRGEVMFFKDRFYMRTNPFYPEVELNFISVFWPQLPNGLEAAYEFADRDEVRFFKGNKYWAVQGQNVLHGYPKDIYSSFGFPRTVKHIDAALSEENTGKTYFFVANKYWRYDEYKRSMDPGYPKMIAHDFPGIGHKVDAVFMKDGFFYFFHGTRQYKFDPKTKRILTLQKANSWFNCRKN
Kind of assay: MMP-1 inhibition (thiopeptide or fluorescent peptide substrate assay). It counts as biochemical. The settings on record: for IC50: read-out: MMP-1 IC50; for MMP-1 % inhibition: concentration given as (10), unit not given.

Assay [4] deals with T1, MMP-9. Kind of assay: MMP-9 inhibition (thiopeptide or fluorescent peptide substrate assay). It counts as biochemical. To be noted: for IC50: read-out: MMP-9 IC50; for inhibition at 1 µM: read-out: MMP-9 % inhibition, footnote: 1µM.
Method: The enzyme activity is measured by the rate of the color increase. The thiopeptide substrate is made up fresh as a 20 mM stock in 100% DMSO and the DTNB is dissolved in 100% DMSO as a 100 mM stock and stored in the dark at room temperature. Both the substrate and DTNB are diluted together to 1 mM with substrate buffer (50 mM HEPES pH 7.5, 5 mM CaCl2) before use. […] Alternatively, a fluorescent peptide substrate is used. In this assay, the peptide substrate contains a fluorescent group and a quenching group. Upon cleavage of the substrate by an MMP, the fluorescence that is generated is quantitated on the fluorescence plate reader. […] The substrate is dissolved in methanol and stored frozen in 1 mM aliquots. For the assay, substrate and enzymes are diluted in HCBC buffer to the desired concentrations. Compounds are added to the 96 well plate containing enzyme and the reaction is started by the addition of substrate. […] For either the thiopeptide or fluorescent peptide assays, the slope of the line is calculated and represents the reaction rate. […] The mean (x±sem) of the control rate is calculated and compared for statistical significance (p<0.05) with drug-treated rates using Dunnett's multiple comparison test.
Assay [5] deals with MMP-13 (Homo sapiens, UniProt P45452). Kind of assay: MMP-13 inhibition (thiopeptide or fluorescent peptide substrate assay). It counts as biochemical.
For assay [6], the system named is cartilage. Put plainly: Cartilage degradation in the rat (cartilage-sponge implant). It counts as in vivo, rat (Lewis strain). To be noted: average daily dose 50 mg/kg, intraperitoneal osmotic minipump; for % Inhibition of Cartilage Collagen Loss: * = p<0.05 vs vehicle-treated rats. The method, then: Twenty mg slices of cartilage are obtained from the knee of freshly slaughtered cattle. Discs of cellulose sponge, 6 mm in diameter, are cut and a 2 mm hole put in the center of the sponge. 100 µl of a sterile suspension containing 1 mg of heat-killed Mycobacterium tuberculosis is applied to the sponge. After air-drying overnight, the sponges are autoclaved and a cartilage slice is placed in the hole cut in the sponge disc. Under sterile conditions, the cartilage-sponge disc is placed subcutaneously in the back of an anesthetized rat (Lewis strain, 200 to 250 g). The incision is closed with staples and the rat allowed to recover from anesthesia. Approximately 5 days after sponge implantation, osmotic minipumps (Alza Corp., Palo Alto, CA), containing either investigational compound or vehicle were implanted intraperitoneally in the anesthetized rat under sterile conditions After 19 days, the rats are euthanized by asphyxiation with CO2 and the granulomas containing the implanted sponge excised from the surrounding tissue.
The weight of the piece of cartilage recovered from the sponge was recorded and the collagen content of the cartilage was determined. The mean of the cartilage weights and collagen content was determined for the vehicle and drug-treated groups. The inhibition of cartilage weight and collagen content loss produced by the compounds compared with vehicle-treated rats was determined. Statistical significance (p< 0.05) of vehicle-treated animals versus drug-treated animals was determined by analysis of variance.
Reference: Bishop J., Greenham AK., Lewis EJ. A novel in vivo model for the study of cartilage degradation. J. Pharmacol. Toxicol. Methods, 30:19-25, 1993.

The mark [7] stands for this setting: 100 mg/kg, ip (intraperitoneal).

Sequence of TACE (P78536 215-824): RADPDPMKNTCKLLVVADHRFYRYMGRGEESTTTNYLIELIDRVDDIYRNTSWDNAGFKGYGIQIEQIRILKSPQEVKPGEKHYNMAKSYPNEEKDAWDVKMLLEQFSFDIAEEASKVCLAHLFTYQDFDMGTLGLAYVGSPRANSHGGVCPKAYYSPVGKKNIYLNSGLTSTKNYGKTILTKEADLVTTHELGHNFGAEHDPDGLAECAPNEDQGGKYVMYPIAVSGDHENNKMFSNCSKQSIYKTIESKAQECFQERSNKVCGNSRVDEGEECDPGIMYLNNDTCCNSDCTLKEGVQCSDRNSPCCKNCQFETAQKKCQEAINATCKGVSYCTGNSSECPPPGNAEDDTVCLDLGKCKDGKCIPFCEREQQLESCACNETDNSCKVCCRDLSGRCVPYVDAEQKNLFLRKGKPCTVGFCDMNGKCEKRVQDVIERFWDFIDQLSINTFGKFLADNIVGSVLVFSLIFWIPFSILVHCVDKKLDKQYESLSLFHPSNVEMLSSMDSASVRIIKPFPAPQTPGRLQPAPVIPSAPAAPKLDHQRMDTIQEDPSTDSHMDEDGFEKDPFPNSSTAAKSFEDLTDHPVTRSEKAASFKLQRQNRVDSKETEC
T1 sequence (P14780 94-707): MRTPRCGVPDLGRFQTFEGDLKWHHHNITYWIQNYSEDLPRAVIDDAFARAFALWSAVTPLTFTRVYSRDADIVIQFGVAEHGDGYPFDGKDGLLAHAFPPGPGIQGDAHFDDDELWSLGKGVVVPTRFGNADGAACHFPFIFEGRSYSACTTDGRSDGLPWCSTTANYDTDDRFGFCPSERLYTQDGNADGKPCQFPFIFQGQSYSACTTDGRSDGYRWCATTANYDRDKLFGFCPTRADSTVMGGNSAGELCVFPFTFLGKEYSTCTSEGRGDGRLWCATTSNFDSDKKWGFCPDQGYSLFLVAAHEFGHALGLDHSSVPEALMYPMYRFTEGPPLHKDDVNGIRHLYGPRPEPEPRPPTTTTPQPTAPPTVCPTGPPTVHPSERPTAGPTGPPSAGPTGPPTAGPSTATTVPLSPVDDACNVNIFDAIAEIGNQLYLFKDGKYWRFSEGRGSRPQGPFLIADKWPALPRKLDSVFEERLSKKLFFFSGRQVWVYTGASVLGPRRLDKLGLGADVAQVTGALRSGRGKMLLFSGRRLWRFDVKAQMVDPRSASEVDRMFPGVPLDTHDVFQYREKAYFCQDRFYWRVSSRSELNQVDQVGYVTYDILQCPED

`COc1ccc(S(=O)(=O)N(Cc2ccccc2)c2c(C)cc(Br)cc2C(=O)NO)cc1` [Example 25, 2-[Benzyl-(4-methoxy-benzenesulfonyl)-amino]-5-bromo-N-hydroxy-3-methyl-benzamide]: the “in-vivo MMP % inhibition vs. MMP-9” value in assay [1] (setting [7]) is 32%(100), ip. For the same molecule, the IC50 (as a rule, the concentration at which inhibition is half-maximal) in assay [2] (read-out: TACE IC50) is more than 1000 nM.

With `COc1ccc(S(=O)(=O)N(Cc2ccccc2)c2c(OCc3ccccc3)cccc2C(=O)NO)cc1` [Example 34, 2-[Benzyl-(4-methoxy-benzenesulfonyl)-amino]-3-benzyloxy-N-hydroxy-benzamide], the IC50 was 281 nM in assay [3], 28 nM in assay [4], 69 nM in assay [5] (read-out: MMP-13 IC50) and more than 1000 nM in assay [2] (read-out: TACE IC50). For the same molecule, the “in-vivo MMP % inhibition vs. MMP-9” value in assay [1] (setting [7]) is 31.6(100), ip %.

In the case of `COc1ccc(S(=O)(=O)N(Cc2cccnc2)c2c(C)cccc2C(=O)NO)cc1` [Example 61, N-Hydroxy-2-[(4-methoxy-benzenesulfonyl)-pyridin-3-ylmethyl-amino]-3-methyl-benzamide], the “in-vivo MMP % inhibition vs. MMP-9” value in assay [1] (20 mg/kg, po (oral)) is on record as 46(20), po %; in assay [1] (50 mg/kg, po (oral)), 59(50), po %. Further, the IC50 in assay [2] (read-out: TACE IC50) is 289 nM.

With `COc1ccc(S(=O)(=O)N(Cc2cccnc2)c2c(C)cccc2C(=O)NO)cc1` [Example 83, N-Hydroxy-2-[(4-methoxy-benzenesulfonyl)-pyridin-3-ylmethyl-amino]-3-methyl-benzamide], in assay [6], the “% Inhibition of Cartilage Weight Loss” value was 44.6% and the “% Inhibition of Cartilage Collagen Loss” value is 51.2* %.

`COc1ccc(S(=O)(=O)N(Cc2cccnc2)c2c(C)cc(Br)cc2C(=O)NO)cc1` [Example 91, 5-Bromo-N-hydroxy-2-[(4-methoxy-benzenesulfonyl)-pyridin-3-ylmethyl-amino]-3-methyl-benzamide]: the figures for the IC50 in assay [4] and in assay [5] (read-out: MMP-13 IC50) were 24 nM and 20 nM, respectively. In addition, the “in-vivo MMP % inhibition vs. MMP-9” value in assay [1] (100 mg/kg, po (oral)) was 55(100), po %.

In the case of `CCCN(c1c(C)cc(C)cc1C(=O)NO)S(=O)(=O)c1ccc(OC)cc1` [Example 117, N-Hydroxy-2-[(4-methoxy-benzenesulfonyl)-propyl-amino]-3,5-dimethyl-benzamide], the IC50 turned out to be 114 nM in assay [3], 10 nM in assay [4], 10 nM in assay [5] (read-out: MMP-13 IC50) and 154 nM in assay [2] (read-out: TACE IC50). Also, the “in-vivo MMP % inhibition vs. MMP-9” value in assay [1] (setting [7]) is recorded as 28.3(100), ip %.

Regarding `COc1ccc(S(=O)(=O)N(C)c2c(CN3CCN(C)CC3)cc(Br)cc2C(=O)NO)cc1` [Example 313, 5-Bromo-N-hydroxy-2-[(4-methoxy-benzenesulfonyl)-methyl-amino]-3-(4-methyl-piperazin-1-ylmethyl)-benzamide], the IC50 came out at 180 nM in assay [3], 1.4 nM in assay [4] and 26 nM in assay [2]. The “% Inhibition of Cartilage Weight Loss” value in assay [6] came out at 45.5%. Besides, the “% Inhibition of Cartilage Collagen Loss” value in assay [6] is given as 28.0* %.

With `COc1ccc(-c2ccc(S(=O)(=O)N(Cc3cccnc3)c3c(C)cccc3C(=O)NO)cc2)c(OC)c1` [Example 411, 2-[(2',4'-Dimethoxy-biphenyl-4-sulfonyl)-pyridin-3-ylmethyl-amino]-N-hydroxy-3-methyl-benzamide], the MMP-1 % inhibition in assay [3] is 32%(10). Also, the inhibition (usually the drop in the measured response relative to a control, in per cent) at 1 µM in assay [4] was 39%; in assay [5] (read-out: MMP-13 % inhibition, footnote: 1µM) it was 44%; in assay [2] it was 9%.

For the molecule `Cc1cccc(C(=O)NO)c1N(Cc1cccnc1)S(=O)(=O)c1ccc(-c2cccs2)cc1` [Example 412, N-Hydroxy-3-methyl-2-[pyridin-3-ylmethyl-(4-thiophen-2-yl-benzenesulfonyl)-amino]-benzamide], the MMP-1 % inhibition in assay [3] is recorded as 69%(10). For the same molecule, the inhibition at 1 µM came to 44% in assay [4] and 3% in assay [2]. Moreover, the MMP-13 % inhibition in assay [5] (concentration given as (.1), unit not given) is 42%(.1).

For the molecule `C#Cc1ccc(S(=O)(=O)N(Cc2cccnc2)c2c(C)cccc2C(=O)NO)cc1` [Example 413, 2-[(4-Ethynyl-benzenesulfonyl)-pyridin-3-ylmethyl-amino]-N-hydroxy-3-methyl-benzamide], the IC50 in assay [3] is 529 nM; in assay [4], 55 nM; in assay [5] (read-out: MMP-13 IC50) it was 75 nM. In assay [2], this molecule had an inhibition at 1 µM of 43%.

On to `Cc1cccc(C(=O)NO)c1N(Cc1cccnc1)S(=O)(=O)c1ccc(-c2cc3ccccc3s2)cc1` [Example 414, 2-[(4-Benzo[b]thiophen-2-yl-benzenesulfonyl)-pyridin-3-ylmethyl-amino]-N-hydroxy-3-methyl-benzamide], for which the MMP-1 % inhibition in assay [3] is given as 29%(10). Moreover, the results for the inhibition at 1 µM in assay [4] and in assay [2] were 68% and 6%, respectively. For the same molecule, the IC50 in assay [5] (read-out: MMP-13 IC50) was 38 nM.

For the molecule `Cc1cccc(C(=O)NO)c1N(Cc1cccnc1)S(=O)(=O)c1ccc(-c2ccc3c(c2)OCO3)cc1` [Example 415, 2-[(4-Benzo[1,3]dioxol-5-yl-benzenesulfonyl)-pyridin-3-ylmethyl-amino]-N-hydroxy-3-methyl-benzamide], the MMP-1 % inhibition in assay [3] is 37%(10). Further, the inhibition at 1 µM was determined as 43% in assay [4] and 9% in assay [2]. Also, in assay [5], the IC50 worked out at 26 nM.

For the molecule “N-Hydroxy-2-[(4-methoxy-benzenesulfonyl)-pyridin-3-ylmethyl-amino]-5-methyl-3-thiophen-2-yl-benzamide [Example 145]”, the IC50 in assay [3] is 55 nM; in assay [4], 7 nM; in assay [5] (read-out: MMP-13 IC50), 3 nM; in assay [2] (read-out: TACE IC50) it was 158 nM.
